# Laboratory results taken from patent US6809181B2, “Human beta-defensin-3 (HBD-3), a highly cationic beta-defensin antimicrobial peptide” (University of Iowa Research Foundation, priority 2000, dated 2004).
# Legend:
# Mycoplasma hominis = conditions: n=28, r140, cited from earlier work
# Mycoplasma pneumoniae = conditions: n=11, r141, cited from earlier work
# Staphylococcus aureus = conditions: n=100, r142, cited from earlier work
# Ureaplasma urealyticum = conditions: n=19, r143, cited from earlier work
# [1] = test system: HBD-3 mRNA expression in fetal lung explants; assay: RT-PCR of HBD-3 mRNA in fetal lung explants; assay type: cell-based, human; conditions: 100 ng/ml IL-1β for 24 h
# [2] = test system: HBD-3 mRNA expression in cultured gingival keratinocytes; assay: RT-PCR of HBD-3 mRNA in cultured gingival keratinocytes; assay type: cell-based, human; conditions: 100 ng/ml IL-1β for 24 h
Molecule,Range (Mycoplasma hominis),MIC50 (Mycoplasma hominis; unit assumed),MIC90 (Mycoplasma hominis; unit assumed),Range (Mycoplasma pneumoniae),MIC50 (Mycoplasma pneumoniae; unit assumed),MIC90 (Mycoplasma pneumoniae; unit assumed),Range (Staphylococcus aureus),MIC50 (Staphylococcus aureus; unit assumed),MIC90 (Staphylococcus aureus; unit assumed),Range (Ureaplasma urealyticum),MIC50 (Ureaplasma urealyticum; unit assumed),MIC90 (Ureaplasma urealyticum; unit assumed),HBD-3 mRNA expression [1],HBD-3 mRNA expression [2]
"CCC[C@@H]1C[C@@H](C(=O)N[C@@H]([C@H]2O[C@H](SC)[C@H](O)[C@@H](O)[C@H]2O)[C@@H](C)O)N(C)C1 [LINCOMYCIN, lincomycin]",0.5-16,2 µg/mL,4 µg/mL,2-32,8 µg/mL,32 µg/mL,0.5-512,1 µg/mL,1 µg/mL,64-128,128 µg/mL,128 µg/mL,–,–
"IL-1β: IL-1β (R & D Systems), pro-inflammatory stimulus used at 100 ng/ml to induce HBD-3 mRNA expression",–,–,–,–,–,–,–,–,–,–,–,–,increased markedly,increased markedly
